Experiments:
Type in all cases: cell-based
VCAM-1 = test: Cell-ELISA for adhesion molecule expression in HUVECs: VCAM-1; conditions: Homo sapiens; TNF-α-induced surface expression, HUVEC
Method: The assay was designed on the basis of reference Transplantation, Vol 63(5), 759-764, 1997 with modifications.
Human Umbilical Vein Endothelial Cells (HUVECs) were obtained from Cascade Biologics and were maintained in M200 (Cascade Biologics, Portland, Oreg.) supplemented with low serum growth supplement (LSGS) at 37° C. in a 5% CO2 incubator. U937 cells (ATCC, Manassas, Va.) were grown in the RPMI 1640 medium supplemented with 10% FBS (Hyclone, Logan, Utah). Recombinant human TNFα, antibodies to VCAM-1, ICAM-1, E-Selectin were obtained from R&D Systems and LPS was obtained from Sigma (St. Louis, Mo.).
HUVECs were plated at […] in 96-well fibronectin-coated plates. The cells were stimulated with TNF-α (10 ng/ml) or LPS (1 μg/ml), 30 min after addition of test compound. After stimulation, cells (E-Selectin and ICAM-1) were fixed with paraformaldehyde in phosphate buffer saline (PBS). Non specific binding was blocked by 2% bovine serum albumin (BSA) in phosphate buffer saline (PBS) for 1 h, and the cells were incubated with primary antibody for 2 h. […] After washing, seven times, 3,3′5,5′-tetramethylbenzidine liquid substrate (TMB substrate) was added and the optical density of each well was determined at 450 nm using a microtitre plate reader (Spectramax, Molecular Devices, Calif.). […] Percent inhibition of the test sample compared to the control is evaluated. […]

IL-8 = IL-8 production by synovial cells from a RA patient; conditions: Homo sapiens, Synovial cell, 10 hours
Method: (§1) Cytokine production by synovial cells obtained from a rheumatoid arthritis (RA) patient undergoing knee replacement surgery was measured according to the method described by Brennan, F. M. et al (The Lancet. July 29: 244-247, (1989)). The synovial membrane tissue was digested in DMEM (Gibco) containing 10% FBS, 100 U/ml penicillin and 100 μg/ml streptomycin, 4 mg/ml collagenase type I (Worthington), 1.5 μg/ml Dnase type I (Sigma) and 15 U/ml heparin and incubated at 37° C. for 3 hours. After incubation, the digested tissue was filtered through a 70-μm membrane and the cells washed 3 times in complete medium (DMEM with 10% FBS). The synovial cells were cultured at 1×10^6 cells/ml in presence/absence of the test sample for 10 hours. The supernatants were harvested by centrifugation and levels of the cytokines (TNF-α, IL-1β, IL-6, IL-8) measured by ELISA. To assess the cytotoxic effect of the plant extracts, the cellular viability test was performed using MTS reagent. The 50% inhibitory concentration (IC50) values were calculated by a nonlinear regression method using GraphPad software (Prism 3.03).
(§2) Effect on proinflammatory cytokines produced by synovial cells obtained from a RA patient was studied for compound 1 as described by procedure of example 8.

IL-6 [1] = test: IL-6 production by synovial cells from a RA patient; conditions: Homo sapiens, Synovial cell, 10 hours
Method: as §1, §2

TNF-α [2] = test: LPS-induced TNF-α production in hPBMCs (ELISA); conditions: Homo sapiens; LPS-stimulated hPBMC
Method: Primary screening—Human peripheral blood mononuclear cells (hPBMCs). TNF-α production by lipopolysaccharides (LPS) in hPBMCs was measured according to the method described by Jansky, L. et al (Physiol. Res. 52: 593-598, (2003)). Blood was collected from healthy donors into Potassium EDTA vacutainer tubes (BD vacutainer). The PBMCs were isolated using gradient centrifugation in Histopaque-1077 solution (Sigma). Isolated PBMCs were suspended in RPMI 1640 culture medium (Gibco BRL, Pasley, UK) containing 10% fetal bovine serum (FBS) (Hyclone, Utah, USA), 100 U/ml penicillin (Sigma Chemical Co. St Louis, Mo.) and 100 μg/ml streptomycin (Sigma Chemical Co. St Louis, Mo.). The cell concentration was adjusted to 1×10^6 cells/ml. The viability as determined by trypan blue dye exclusion was uniformly ≧98%. The cell suspension (100 μl) was added to the wells of a 96-well culture plate. Following cell plating, 79 μl of the culture medium and 1 μl of eight different concentrations of the test samples (final concentration 0.03, 0.1, 0.3, 1, 3, 10, 30, 100 μg/ml) dissolved in DMSO (dimethylsulfoxide, Sigma, Mo., USA) were added to the cells. The final concentration of DMSO was adjusted to 0.5%. The vehicle (0.5% DMSO) was used as control. Rolipram (100, 300 μM) was used as a standard. The plates were incubated for 30 min at 37° C. in an atmosphere of 5% CO2. Finally, 20 μl (10 μg/ml) per well of LPS, (Escherchia coli 0127:B8, Sigma Chemical Co., St. Louis, Mo.) was added, for a final concentration of 1 μg/ml. […] The % inhibition was recorded. Percent cytotoxicity of the test samples compared to control was evaluated.
(§3) The effect of the plant extract on the proinflammatory cytokines: TNF-α, interleukin-1β (IL-1β), interleukin-6 (IL-6) and interleukin-8 (IL-8) was measured using the supernatants generated in the primary screening assay. […]
(§4) The effect of the Compound 1, on the proinflammatory cytokines: TNF-α interleukin-1β (IL-1β), interleukin-6 (IL-6) and interleukin-8 (IL-8) was measured using the supernatants generated in the primary screening assay. […]

IL-6 [3] = test: LPS-stimulated IL-6 release in hPBMCs (ELISA); conditions: Homo sapiens; LPS-stimulated hPBMC
Method: Primary screening—Human peripheral blood mononuclear cells (hPBMCs). TNF-α production by lipopolysaccharides (LPS) in hPBMCs was measured according to the method described by Jansky, L. et al (Physiol. Res. 52: 593-598, (2003)). Blood was collected from healthy donors into Potassium EDTA vacutainer tubes (BD vacutainer). The PBMCs were isolated using gradient centrifugation in Histopaque-1077 solution (Sigma). Isolated PBMCs were suspended in RPMI 1640 culture medium (Gibco BRL, Pasley, UK) containing 10% fetal bovine serum (FBS) (Hyclone, Utah, USA), 100 U/ml penicillin (Sigma Chemical Co. St Louis, Mo.) and 100 μg/ml streptomycin (Sigma Chemical Co. St Louis, Mo.). The cell concentration was adjusted to 1×10^6 cells/ml. The viability as determined by trypan blue dye exclusion was uniformly ≧98%. […] The % inhibition was recorded. Percent cytotoxicity of the test samples compared to control was evaluated.
as §3, §4

TNF-α [4] = test: TNF-α production by synovial cells from a RA patient; conditions: Homo sapiens, Synovial cell, 10 hours
Method: as §1, §2

IC50 (VCAM-1): 0.4 µM | IC50 (IL-8): 10.9 µM | IC50 (IL-6 [1]): 1.4 µM | IC50 (TNF-α [2]): 0.7 µM | IC50 (IL-6 [3]): 1.6 µM | IC50 (TNF-α [4]): 0.8 µM
Structure (SMILES): C=C1C(=O)OC2C3=C(C)CCCC3(C)CCC12O (stereo not drawn) [Compound 1, 3a-hydroxy-5a,9-dimethyl-3-methylene-3a,4,5,5a,6,7,8,9b-octahydro-3H-naphtho[1,2-b]furan-2-one]
